Data taken from ChEMBL document CHEMBL1149382 (J Med Chem, 2006).
pIC50: −log10 of the molar value. Values after ≈ are worked out from the molar mass of the structure shown. Active and inactive are the calls of the source. The rule behind the calls is not given here.

Assays:
[1] = system: Trypanosoma cruzi; assay: Disruption of calcium homeostasis in Trypanosoma cruzi; assay type: functional, organism-based
[2] = target: lanosterol synthase / oxidosqualene cyclase (Homo sapiens) (UniProt P48449); assay: Inhibitory activity against oxidosqualene cyclase
lanosterol synthase / oxidosqualene cyclase (Homo sapiens), sequence (P48449 whole entry, looked up): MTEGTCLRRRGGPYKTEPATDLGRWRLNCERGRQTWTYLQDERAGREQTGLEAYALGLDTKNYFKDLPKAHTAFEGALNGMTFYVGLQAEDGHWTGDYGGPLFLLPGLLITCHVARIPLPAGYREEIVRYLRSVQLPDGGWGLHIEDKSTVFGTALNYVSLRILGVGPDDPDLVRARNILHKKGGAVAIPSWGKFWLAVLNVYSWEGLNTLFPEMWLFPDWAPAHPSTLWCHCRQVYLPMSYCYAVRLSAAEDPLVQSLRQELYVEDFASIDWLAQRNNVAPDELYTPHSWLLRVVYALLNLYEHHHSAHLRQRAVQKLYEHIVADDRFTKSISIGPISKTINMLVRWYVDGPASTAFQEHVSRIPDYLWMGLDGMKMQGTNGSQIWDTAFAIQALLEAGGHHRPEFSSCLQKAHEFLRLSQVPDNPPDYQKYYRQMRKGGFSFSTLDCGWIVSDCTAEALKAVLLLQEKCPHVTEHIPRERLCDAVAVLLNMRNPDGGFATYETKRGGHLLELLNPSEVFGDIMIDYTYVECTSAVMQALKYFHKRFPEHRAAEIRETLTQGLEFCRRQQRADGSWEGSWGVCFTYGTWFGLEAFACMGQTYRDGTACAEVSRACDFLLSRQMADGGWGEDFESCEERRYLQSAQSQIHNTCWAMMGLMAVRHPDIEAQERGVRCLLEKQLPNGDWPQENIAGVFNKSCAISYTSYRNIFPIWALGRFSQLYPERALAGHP

[3] = system: Trypanosoma cruzi; assay: Antiprotozoal activity against Trypanosoma cruzi amastigotes; assay type: functional, organism-based
[4] = target: T1, Farnesyl diphosphate synthase (Trypanosoma cruzi) (UniProt Q8WS26); assay: Inhibitory activity against recombinant farnesyl diphosphate synthase at 50 uM
T1 sequence (whole entry): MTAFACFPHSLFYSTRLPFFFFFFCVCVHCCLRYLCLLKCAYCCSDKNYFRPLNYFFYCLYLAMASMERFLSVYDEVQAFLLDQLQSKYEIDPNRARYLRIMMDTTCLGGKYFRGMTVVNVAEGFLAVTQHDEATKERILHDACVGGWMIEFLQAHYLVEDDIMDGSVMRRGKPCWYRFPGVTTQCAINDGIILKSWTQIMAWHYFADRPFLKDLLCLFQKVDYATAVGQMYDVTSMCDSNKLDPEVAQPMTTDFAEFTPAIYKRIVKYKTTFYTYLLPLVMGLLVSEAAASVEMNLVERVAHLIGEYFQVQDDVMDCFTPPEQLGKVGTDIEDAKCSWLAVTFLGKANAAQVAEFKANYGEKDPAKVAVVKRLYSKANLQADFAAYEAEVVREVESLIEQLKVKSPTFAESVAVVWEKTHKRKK

[5] = system: Trypanosoma cruzi; assay: Antiprotozoal activity against Trypanosoma cruzi epimastigotes; assay type: functional, organism-based
[6] = system: Trypanosoma cruzi; assay: Ability to block ergosterol biosynthesis in Trypanosoma cruzi; assay type: functional, organism-based

Row | Compound | Activity [1] | IC50 [2] | MIC [3] [µM] | inhibition [4] | MIC [5] [µM] | Activity [6] | pIC50 [3] | pIC50 [5]
1 | CCCCc1oc2ccccc2c1C(=O)c1cc(I)c(OCCN(CC)CC)c(I)c1 [AMIODARONE] | Active | Active | 8 (≈ 5.16 µg/mL) | inactive | 20 (≈ 12.9 µg/mL) | Active | – | –
2 | CC[C@@H]([C@H](C)O)n1ncn(-c2ccc(N3CCN(c4ccc(OC[C@@H]5CO[C@@](Cn6cncn6)(c6ccc(F)cc6F)C5)cc4)CC3)cc2)c1=O [POSACONAZOLE] | Active | – | 0.003 (≈ 0.0021 µg/mL) | – | 0.02 (≈ 0.014 µg/mL) | – | 9.60 | 7.85
